Measured values taken from patent US20240109914A1, “IMIDAZOTHIAZOLE COMPOUNDS AND ANALOGS THEREOF AND METHODS FOR TREATING NEMATODE INFECTIONS IN PLANTS” (The Governing Council of The University of Toronto, priority 2021, published 2024).
Where two headings read alike, the source gives them in different places.

What was measured:
M. incognita J2 larvae = experiment: Meloidogyne incognita in vitro larval mobility assay; assay type: in vivo; settings: 45 μM, 4 days; for Replicate 1 z-score / Replicate 2 z-score: z-score vs untreated DMSO wells; for pest or weed control at 45 µM: Meloidogyne incognita, 96 h
Protocol: M. incognita (Kofoid & White) Chitwood Race 1 (originally isolated in Maryland) was used for all experiments, and was maintained on pepper (Capsicum annuum L.) cv. PA-136 in a greenhouse as previously described^44. Infective J2 juveniles were collected as described in ref. 45. The microwell dose-response experiments were carried out similarly to previously described protocols^44,46. In brief, 50 μL of deionized water was added to the wells of 96-well polystyrene plates and 0.5 μL of test compound (or DMSO alone) was added to each well. Approximately 35 J2s were then added to each well in 49.5 μL of deionized water. The chemicals were tested at 45 μM, and the final concentration of DMSO in each well was 0.5% (v/v). DMSO alone was added to 3 separate wells. The plates were covered with plastic adhesive strips, and the lids of the plates were sealed with parafilm. The plates were incubated at 25° C. without shaking for 4 days. The percent of worms that were immobile (% immobile) was quantified by counting the number of immobile worms after 4 days of incubation, dividing the number of immobile worms by the total number of worms in the well, and then multiplying by 100. Two replicates were performed for each treatment. The z-score for each treatment was calculated using the mean and standard deviation of the untreated DMSO control wells. The average % immobile value was calculated across the two replicates. A test compound was considered most promising if the z-score was greater than 1.645 in both replicates.

M. hapla eggs = experiment: Meloidogyne hapla in vitro egg hatch assay; assay type: in vivo; settings: 45 μM; for Number of Hatched Eggs: 8 days at room temperature, about 90 eggs per well, tested once; for Number of Hatched Eggs z-score: 8 days, z-score vs 8 untreated DMSO wells
Protocol: The M. hapla were originally obtained from a soil sample of muck soil from Ste-Clotilde, Quebec, Canada. Using tweezers, egg masses were carefully removed from root material from infested carrot roots. Eggs were liberated from the egg masses using a mild sodium hypochlorite bleaching protocol, whereby egg masses were bleached with a 10% commercial bleach (sodium hypochlorite) solution for 4 minutes with vigorous shaking, and then washed 5 times with deionized water. 50 μL of deionized water was added to each well of two 96-well polystyrene culture plates, and 0.5 μL of chemical (or DMSO alone) was added to each well. Approximately 90 eggs were added to each well in 49.5 ul of deionized water. The plates were sealed with parafilm and incubated for 8 days at room temperature without shaking in a Tupperware box filled with wet paper towels. After the 8-day incubation, the number of hatched eggs was counted for each treatment and for the untreated controls. Each chemical treatment was tested only once. 8 separate untreated DMSO controls were included in the experiment. The z-score for each treatment was calculated using the mean and standard deviation of the untreated DMSO control wells.

[1] = average of the two replicates, read-out: Average % Immobile
[2] = replicate 1, read-out: Replicate 1 % Immobile
[3] = replicate 2, read-out: Replicate 2 % Immobile

Compound	Replicate 1 z-score (M. incognita J2 larvae; replicate 1)	Replicate 2 z-score (M. incognita J2 larvae; replicate 2)	pest or weed control at 45 µM (M. incognita J2 larvae; [1]) [%]	pest or weed control at 45 µM (M. incognita J2 larvae; [2]) [%]	pest or weed control at 45 µM (M. incognita J2 larvae; [3]) [%]	Number of Hatched Eggs (M. hapla eggs)	Number of Hatched Eggs z-score (M. hapla eggs)	Number of Hatched Eggs (M. hapla eggs; listed as 1-161)
Cc1cn2cc(-c3ccc(OC(F)F)cc3)nc2s1 [I-54]	[1.73]	[2.15]	26.4	31.1	21.7	–	–	–
COc1c(-c2cn3ccsc3n2)ccc2ccccc12 [I-81]	–	–	–	–	–	3	[3.64]	–
COCc1nn2cc(-c3ccc(Cl)cc3)nc2s1 [I-144]	[4.17]	[6.85]	45.4	43.1	47.6	4	[3.31]	–
COCc1nn2cc(-c3cccc(OC)c3)nc2s1 [I-108]	–	–	–	–	–	4	[3.31]	–
FC(F)(F)Oc1ccc(-c2cn3ccsc3n2)cc1 [I-61]	[8.86]	[6.94]	57.1	66	48.1	1	[4.30]	–
FC(F)Oc1ccc(-c2cn3ccsc3n2)cc1 [I-63]	[15.80]	[16.33]	–	100	100	2	[3.97]	–
O=C(O)c1cn2cc(-c3ccccc3)nc2s1 [I-94]	–	–	–	–	–	4	[3.31]	–
Cc1sc2nc(-c3ccc(Cl)s3)cn2c1C [I-86]	–	–	–	–	–	4	[3.31]	–
Cc1cn2cc(-c3ccc(N)cc3)nc2s1 [I-132]	–	–	–	–	–	3	[3.64]	–
Cc1csc2nc(-c3ccc(Cl)s3)cn12 [I-85]	–	–	–	–	–	4	[3.31]	–
FC(F)(F)c1ccc(-c2cn3ccsc3n2)cc1 [I-68]	–	–	–	–	–	4	[3.31]	–
O=Cc1c(-c2ccc(Cl)cc2)nc2sccn12 [I-93]	[15.80]	[12.15]	≥ 75	100	76.9	–	–	–
COc1ccc(-c2cn3ccsc3n2)cc1 [I-142]	[2.76]	[1.68]	27.6	36.2	19.1	–	–	–
Fc1ccc(-c2cn3nc(Br)sc3n2)cc1 [I-113]	[15.80]	[15.32]	–	100	94.4	–	–	–
Cc1cn2cc(-c3ccc(OC(F)(F)F)cc3)nc2s1 [I-53]	[3.33]	[6.79]	43.1	39	47.3	–	–	–
COCc1nn2cc(-c3ccc(F)cc3)nc2s1 [I-141]	[1.89]	[4.06]	32.1	31.9	32.2	–	–	–

Compound	Replicate 1 z-score (M. incognita J2 larvae; replicate 1)	Replicate 2 z-score (M. incognita J2 larvae; replicate 2)	pest or weed control at 45 µM (M. incognita J2 larvae; [1]) [%]	pest or weed control at 45 µM (M. incognita J2 larvae; [2]) [%]	pest or weed control at 45 µM (M. incognita J2 larvae; [3]) [%]	Number of Hatched Eggs (M. hapla eggs)	Number of Hatched Eggs z-score (M. hapla eggs)	Number of Hatched Eggs (M. hapla eggs; listed as 1-161)
Cc1nn2cc(-c3ccc(Cl)cc3)nc2s1 [I-158]	[3.12]	[8.51]	47.4	37.9	56.8	–	–	–
CCOC(=O)c1ccc(-c2cn3ccsc3n2)cc1 [I-72]	–	–	–	–	–	4	[3.31]	–
COCc1nn2cc(-c3ccc(C)c(C)c3)nc2s1 [I-109]	–	–	–	–	–	4	[3.31]	–
CCOc1ccc(-c2cn3ccsc3n2)cc1 [I-153]	–	–	–	–	–	2	[3.97]	–
CCc1nn2cc(-c3ccc(C)cc3C)nc2s1 [I-129]	[2.18]	[1.78]	26.5	33.3	19.6	–	–	–
Cc1cn2cc(-c3cccs3)nc2s1 [I-78]	–	–	–	–	–	3	[3.64]	–
Cc1csc2nc(-c3ccc(OC(F)F)cc3)cn12 [I-64]	–	–	–	–	–	4	[3.31]	–
Cc1ccc(-c2nc3sccn3c2C=O)cc1 [I-152]	[15.80]	[14.75]	–	100	91.3	–	–	–
O=Cc1c(-c2ccc(F)cc2)nc2sccn12 [I-157]	[15.40]	[15.24]	–	98	94	–	–	–
c1ccc2cc(-c3cn4ccsc4n3)ccc2c1 [I-101]	–	–	–	–	–	2	[3.97]	–
Brc1nn2cc(-c3ccccc3)nc2s1 [I-159]	[15.34]	[16.33]	–	97.8	100	–	–	–
COc1ccc(-c2nc3scc(C)n3c2C=O)cc1 [I-135]	–	–	–	–	–	4	[3.31]	–
Nc1c(-c2ccc(Br)cc2)nc2sccn12 [I-118]	–	–	–	–	–	2	[3.97]	–
Cc1csc2nc(-c3ccc(OC(F)(F)F)cc3)cn12 [I-62]	–	–	–	–	–	3	[3.64]	–
Cc1csc(-c2cn3cc(C)sc3n2)c1 [I-161]	–	–	–	–	–	0	[4.63]	completely inhibited egg hatching
Nc1c(-c2ccccc2)nc2sccn12 [I-128]	[11.92]	[13.69]	≥ 75	81	85.5	–	–	–
